biological target: Xanthine oxidase (from bovine milk, Sigma) (Bos taurus (Bovine), UniProt P80457); test: Xanthine oxidase inhibitory activity; format: biochemical; settings: 100 μM xanthine final, absorbance at 290 nm
Description: (1) Preparation of Test Compounds
Test compounds were dissolved in DMSO (Wako) at 40 mM concentration and then diluted to intended concentrations with phosphate-buffered saline (PBS).
(2) Method for Measurement
Xanthine oxidase (from bovine milk, Sigma) was prepared with phosphate-buffered saline (PBS) at 0.02 units/mL, and then the solution was added to 96 well plates at 50 μL/well. In addition, test compounds diluted with PBS were added at 50 μL/well. Xanthine (Wako) at 200 μM prepared with PBS was added at 100 μL/well, and the reaction was conducted for 10 minutes at room temperature. Absorbance at 290 nm was measured using a microplate reader SpectraMax Plus 384 (Molecular device). The absorbance under a condition without xanthine is 0%, and control without test compounds is 100%. Fifty % inhibitory concentration of a test compound (IC50) was calculated (Tables 91 to 92). Ex. No in the table indicates Example number.

Chain of Xanthine oxidase (from bovine milk, Sigma) (P80457 whole entry): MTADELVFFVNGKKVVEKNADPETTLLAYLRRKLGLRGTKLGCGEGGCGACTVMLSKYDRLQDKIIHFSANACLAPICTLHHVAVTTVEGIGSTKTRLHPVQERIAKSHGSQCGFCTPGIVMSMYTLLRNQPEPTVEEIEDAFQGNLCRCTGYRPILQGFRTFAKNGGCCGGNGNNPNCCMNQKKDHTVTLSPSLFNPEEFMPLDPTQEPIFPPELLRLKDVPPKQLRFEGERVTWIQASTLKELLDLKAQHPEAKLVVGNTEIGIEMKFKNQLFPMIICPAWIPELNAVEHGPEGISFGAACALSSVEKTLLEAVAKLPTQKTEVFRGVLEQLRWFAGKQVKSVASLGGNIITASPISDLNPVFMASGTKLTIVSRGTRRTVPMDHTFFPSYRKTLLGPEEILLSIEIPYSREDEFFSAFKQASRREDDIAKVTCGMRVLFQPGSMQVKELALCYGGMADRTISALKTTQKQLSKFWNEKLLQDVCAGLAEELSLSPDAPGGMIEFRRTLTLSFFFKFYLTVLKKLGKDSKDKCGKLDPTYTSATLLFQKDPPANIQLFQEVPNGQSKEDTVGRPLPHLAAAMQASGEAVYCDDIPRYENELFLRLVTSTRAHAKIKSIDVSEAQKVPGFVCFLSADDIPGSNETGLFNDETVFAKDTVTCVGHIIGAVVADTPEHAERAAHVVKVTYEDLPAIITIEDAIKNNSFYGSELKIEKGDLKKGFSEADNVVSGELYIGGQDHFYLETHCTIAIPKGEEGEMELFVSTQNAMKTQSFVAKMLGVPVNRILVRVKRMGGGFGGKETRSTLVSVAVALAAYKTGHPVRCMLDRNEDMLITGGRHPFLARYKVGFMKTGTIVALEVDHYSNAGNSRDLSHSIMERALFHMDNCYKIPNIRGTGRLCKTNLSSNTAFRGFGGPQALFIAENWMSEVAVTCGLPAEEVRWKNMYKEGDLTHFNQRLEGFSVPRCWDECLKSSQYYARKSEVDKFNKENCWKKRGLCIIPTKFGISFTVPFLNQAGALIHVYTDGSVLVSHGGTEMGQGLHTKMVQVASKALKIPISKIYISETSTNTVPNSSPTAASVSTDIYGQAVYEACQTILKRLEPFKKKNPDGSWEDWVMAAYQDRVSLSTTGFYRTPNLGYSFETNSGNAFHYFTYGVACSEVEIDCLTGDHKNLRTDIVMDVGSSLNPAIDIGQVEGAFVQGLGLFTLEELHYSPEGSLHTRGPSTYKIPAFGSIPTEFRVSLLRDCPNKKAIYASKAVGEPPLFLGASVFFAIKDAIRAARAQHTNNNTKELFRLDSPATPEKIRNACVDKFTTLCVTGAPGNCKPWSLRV

Row | IC50 [nM] | SMILES
1 | 4.4 | N#Cc1cn(-c2ccc(C(=O)O)c(O)c2)cc1-c1ccc(O)cc1 [Example 339]
2 | 18.9 | O=C(O)c1ccc(-n2cc(C(=O)O)c(C(F)(F)F)c2)cc1O [Example 297]
3 | 19.9 | N#Cc1cccc(-c2cn(-c3ccc(C(=O)O)c(O)c3)cc2C#N)c1 [Example 330]
4 | 6.4 | N#Cc1cn(-c2ccc(C(=O)O)c(O)c2)cc1-c1csc2ccccc12 [Example 291]
5 | 15.9 | COc1ccccc1/C=C/c1cn(-c2ccc(C(=O)O)c(O)c2)cc1C#N [Example 293]
6 | 19.9 | N#Cc1cn(-c2cc(C(=O)O)ccn2)cc1C1=CCCCC1 [Example 370]
7 | 13.7 | CSc1ccc(-c2cn(-c3ccc(C(=O)O)c(O)c3)cc2C#N)cc1 [Example 350]
8 | 25.6 | Cc1cccc(-c2cn(-c3cc(C(=O)O)ccn3)cc2C#N)c1 [Example 362]
9 | 14.7 | O=C(O)c1ccc(-n2ccc([N+](=O)[O-])c2)cc1O [Example 351]
10 | 6.1 | Cc1cn(-c2ccc(C(=O)O)c(O)c2)cc1C#N [Example 359]
11 | 5.2 | N#Cc1cn(-c2ccc(C(=O)O)c(O)c2)cc1-c1nccs1 [Example 348]
12 | 9.9 | N#Cc1cn(-c2ccc(C(=O)O)c(O)c2)cc1-c1ccccc1C(F)(F)F [Example 312]
13 | 13.5 | CCOc1cccc(-c2cn(-c3ccc(C(=O)O)c(O)c3)cc2C#N)c1 [Example 344]
14 | 14.6 | N#Cc1cn(-c2ccc(C(=O)O)c(O)c2)cc1-c1ccc(Cl)cc1 [Example 315]
15 | 29.3 | COc1ccccc1-c1cn(-c2cc(C(=O)O)ccn2)cc1C#N [Example 366]
16 | 22.6 | N#Cc1cn(-c2ccc(C(=O)O)c(O)c2)cc1-c1cc2ccccc2s1 [Example 289]
17 | 7.5 | Cc1ccccc1-c1cn(-c2ccc(C(=O)O)c(O)c2)cc1C#N [Example 307]
18 | 5.7 | N#Cc1cn(-c2ccc(C(=O)O)c(O)c2)cc1-c1cccc(O)c1 [Example 338]
19 | 7.9 | N#Cc1cn(-c2ccc(C(=O)O)c(O)c2)cc1C(=O)O [Example 299]
20 | 28.8 | COc1ccc(/C=C/c2cn(-c3ccc(C(=O)O)c(O)c3)cc2C#N)cc1 [Example 295]
21 | 7.3 | N#Cc1cn(-c2ccc(C(=O)O)c(O)c2)cc1-c1ccc2c(c1)OCCO2 [Example 305]
22 | 17.5 | Cc1ccc(-c2cn(-c3ccc(C(=O)O)c(O)c3)cc2C#N)s1 [Example 310]
23 | 59.5 | N#Cc1cn(-c2ccc(C(=O)O)c(O)c2)cc1-c1ccc(COc2ccccc2)cc1 [Example 334]
24 | 6.8 | Cc1ccc(-c2cn(-c3ccc(C(=O)O)c(O)c3)cc2C#N)cc1 [Example 317]
25 | 7.7 | COc1ccc(-c2cn(-c3ccc(C(=O)O)c(O)c3)cc2C#N)c(C)c1 [Example 276]

same assay, conditions: 0.02 units/mL, xanthine 200 μM, 10 minutes at room temperature, absorbance at 290 nm

Row | SMILES | IC50 [nM]
26 | CCCCc1c(C#N)cn(-c2ccc(C(=O)O)cc2)c1C [Example 2, 4-(3-Butyl-4-cyano-2-methylpyrrole-1-yl)benzoic acid] | 17.1
27 | N#Cc1cn(-c2ccc(C(=O)O)cc2)cc1-c1ccccc1OCc1ccc(F)cc1 [Example 172] | 49.1
28 | COCCOc1cn(-c2ccc(C(=O)O)cc2)cc1C#N [Example 234] | 4
29 | N#Cc1cn(-c2ccc(C(=O)O)cc2)cc1-c1cccc(OCc2ccccc2F)c1 [Example 189] | 63.4
30 | N#Cc1cn(-c2ccc(C(=O)O)cc2)cc1-c1cccc(OCc2cccc(Cl)c2)c1 [Example 193] | 70.4
31 | CCOCCOc1cccc(-c2cn(-c3ccc(C(=O)O)cc3)cc2C#N)c1 [Example 215] | 6.7
32 | CCCc1cn(-c2ccc(C(=O)O)cc2)cc1C#N [Example 238] | 3.6
33 | CC(=O)Nc1nn(-c2ccc(C(=O)O)cc2)cc1C#N [Example 27, 4-(3-Acetylamino-4-cyanopyrazole-1-yl)benzoic acid] | 7.1
34 | COCOc1ccc(-c2cn(-c3ccc(C(=O)O)cc3)cc2C#N)cc1 [Example 145] | 4.9
35 | N#Cc1cn(-c2ccc(C(=O)O)cc2)cc1-c1cccc(OCc2cccs2)c1 [Example 173] | 41.4
36 | N#Cc1cn(-c2ccc(C(=O)O)cc2)cc1-c1ccccc1OCc1ccc(Cl)cc1 [Example 179] | 143
37 | CC(C)Cc1cn(-c2ccc(C(=O)O)cc2)cc1C#N [Example 241] | 3.6
38 | N#Cc1cn(-c2ccc(C(=O)O)cc2)cc1-c1cccc2c1OC(F)(F)O2 [Example 254] | 6.9
39 | N#Cc1cn(-c2ccc(C(=O)O)cc2)nc1-c1csc2ccccc12 [Example 8, 4-(3-Benzo[b]thiophene-3-yl-4-cyanopyrazole-1-yl)benzoic acid] | 7.5
40 | N#Cc1cn(-c2ccc(C(=O)O)cc2)cc1C(=O)N1CCCCC1 [Example 231] | 7
41 | COc1cccc(COc2cccc(-c3cn(-c4ccc(C(=O)O)cc4)cc3C#N)c2)c1 [Example 198] | 111
42 | N#Cc1cn(-c2ccc(C(=O)O)cc2)cc1-c1cccc(OCc2ccc(F)cc2)c1 [Example 191] | 90.3

Now from value to compound:

Row | IC50 [nM] | SMILES
43 | 15.2 | N#Cc1cn(-c2ccc(C(=O)O)cc2)cc1-c1cccn1Cc1ccccc1 [Example 256]
44 | 52.4 | N#Cc1cn(-c2ccc(C(=O)O)cc2)cc1-c1ccccc1OCc1ccccc1 [Example 155]
45 | 4 | N#Cc1cn(-c2ccc(C(=O)O)cc2)cc1-c1ccccc1OCCO [Example 152]
46 | 4.6 | CN(Cc1ccccc1)C(=O)c1cn(-c2ccc(C(=O)O)cc2)cc1C#N [Example 228]
47 | 39.8 | N#Cc1cn(-c2ccc(C(=O)O)cc2)cc1-c1ccccc1OCc1cccc(F)c1 [Example 171]
48 | 4 | N#Cc1cn(-c2ccc(C(=O)O)cc2)cc1-c1ccccc1O [Example 146]
49 | 32.2 | N#Cc1cn(-c2ccc(C(=O)O)cc2)cc1-c1cccc(Oc2ccccc2)c1 [Example 165]
50 | 33.2 | N#Cc1cn(-c2ccc(C(=O)O)cc2)cc1-c1ccccc1Oc1ccccc1 [Example 164]
51 | 13.7 | N#Cc1cn(-c2ccc(C(=O)O)cc2)cc1-c1ccccc1OCc1ccsc1 [Example 176]
52 | 41.7 | N#Cc1cn(-c2ccc(C(=O)O)cc2)cc1-c1ccc(-c2ccccc2)cc1 [Example 163]
53 | 2.4 | N#Cc1cn(-c2ccc(C(=O)O)cc2)cc1-c1cccc(OCCO)c1 [Example 153]
54 | 23 | Cn1cc(-c2cn(-c3ccc(C(=O)O)cc3)cc2C#N)c2ccccc21 [Example 251]
55 | 4.6 | N#Cc1cccc(-c2cn(-c3ccc(C(=O)O)cc3)cc2C#N)c1 [Example 211]
56 | 37.5 | N#Cc1cn(-c2ccc(C(=O)O)cc2)cc1-c1ccccc1OCc1ccccc1F [Example 170]
57 | 7.2 | CNC(=O)c1cn(-c2ccc(C(=O)O)cc2)cc1C#N [Example 225]
58 | 4.6 | COCOc1ccccc1-c1cn(-c2ccc(C(=O)O)cc2)cc1C#N [Example 143]
59 | 67.3 | COc1ccccc1COc1ccccc1-c1cn(-c2ccc(C(=O)O)cc2)cc1C#N [Example 183]
60 | 2.7 | N#Cc1cn(-c2ccc(C(=O)O)cc2)cc1-c1cccc(OCC(=O)O)c1 [Example 159]
61 | 19.2 | N#Cc1cn(-c2ccc(C(=O)O)cc2)cc1-c1ccccc1OCCCCO [Example 199]
62 | 3.6 | N#Cc1cn(-c2ccc(C(=O)O)cc2)cc1C(=O)NCc1ccccc1 [Example 227]
63 | 4.6 | N#Cc1cn(-c2ccc(C(=O)O)cc2)nc1NC(=O)Cc1ccccc1 [Example 263]
